Where no end group is shown, it is not given here.
Assays:
[1] = test system: IL-2 spleen cells; experiment: Th1/Th2 cytokine profiling assay: IL-2; assay type: cell-based; details: 10 micrograms per ml; Ovalbumin-restimulated spleen cells of immunized Balb/c mice, 72 hours
Excerpt: (§1) The Balb/c mice (originated in 1923, it is a popular strain and is used in many different research disciplines. Also classified as an inbred from the production of 20 or more successive brother-sister matings, the Balb/c mouse is albino and small in size) were immunized on Days 1, 15, and 29 with Ovalbumin (Ovalbumin is the main protein found in egg white, commonly used to stimulate an immunological reaction in test animals) in PBS (5 micrograms/injection). On day 50, spleens of the mice were harvested (3 weeks after last boost with Ovalbumin). Cells were cultured (2×10^5/well in triplicate) and incubated with culture medium or test peptides—10 micrograms per ml—for 30 min. Thereafter, additional Ovalbumin was added to the cells at 10 micrograms/ml for in vitro restimulation of the cells. 72 hours later, cell supernatants were harvested and assayed using the Becton Dickinson Mouse Th1/Th2 Cytokine CBA Kit.

[2] = test system: HUVEC; experiment: Endothelial tube formation assay; assay type: cell-based, human; details: 10 micrograms per ml, 20 hours, combination peptide 1:peptide 2 0.95 mole:1.05 mole
Excerpt: Positive control was vehicle only.

[3] = test system: Primary Human endothelial cells (HUVEC); experiment: Endothelial cell migration assay; assay type: cell-based; details: 10 micrograms per ml, 22 hours, combination peptide 1:peptide 2 0.95 mole:1.05 mole
Procedure: Thereafter, designated concentration of testing peptides—10 micrograms per ml—was added in duplicate wells.

[4] = test system: IL-5 spleen cells; experiment: Th1/Th2 cytokine profiling assay: IL-5; assay type: cell-based; details: 10 micrograms per ml; Ovalbumin-restimulated spleen cells of immunized Balb/c mice, 72 hours
Excerpt: as §1

[5] = test system: TNF-a spleen cells; experiment: Th1/Th2 cytokine profiling assay: TNF-a; assay type: cell-based; details: 10 micrograms per ml; Ovalbumin-restimulated spleen cells of immunized Balb/c mice, 72 hours
Excerpt: as §1

[6] = test system: IL-4 spleen cells; experiment: Th1/Th2 cytokine profiling assay: IL-4; assay type: cell-based; details: 10 micrograms per ml; Ovalbumin-restimulated spleen cells of immunized Balb/c mice, 72 hours
Excerpt: as §1

[7] = test system: HCMV strain AD169; experiment: HCMV plaque formation assay in MRC-5 cells; details: for inhibition of HCMV plaque formation as compared to the virus control: 10 micrograms per ml, HCMV AD169, 7-10 days
[8] = test system: IFNγ spleen cells; experiment: Th1/Th2 cytokine profiling assay: IFNγ; assay type: cell-based; details: 10 micrograms per ml; Ovalbumin-restimulated spleen cells of immunized Balb/c mice, 72 hours
Excerpt: as §1

[9] = test system: hepatitis B virus (HBV) ayw strain; experiment: HBV assay in HepG2-2.2.15 cells (TaqMan PCR of secreted HBV DNA); assay type: cell-based; details: 10 micrograms per ml, six days, HBV DNA by TaqMan PCR
Excerpt: HepG2-2.2.15 is a stable cell line containing the hepatitis B virus (HBV) ayw strain genome (ATCC Cat. No. CRL-11997). Antiviral compounds blocking any late step of viral replication such as transcription, translation, pregenome encapsidation, reverse transcription, particle assembly and release can be identified and characterized using this cell line. In this assay, an active compound will reduce the production of secreted HBV from cells, measured by utilizing real time quantitative PCR (TaqMan) assay to directly and accurately measure HBV DNA copies.
HepG2-2.2.15 cells were plated in 96-well microtiter plates. After 16-24 hours the confluent monolayer of HepG2-2.2.15 cells was washed and the medium was replaced with complete medium containing test peptides—10 micrograms per ml—in duplicate. […] Six days following the initial administration of the peptides, the cell culture supernatants was collected, treated with pronase and DNAse and then used in a real-time quantitative TaqMan PCR assay. The PCR-amplified HBV DNA was detected in real-time by monitoring increases in fluorescence signals that result from the exonucleolytic degradation of a quenched fluorescence probe molecule that hybridizes to the amplified HBV DNA. […] Antiviral activity was calculated from the reduction in HBV DNA levels (% virus control). […]

[10] = test system: HIV-1IIIB; experiment: HIV-1 antiviral assay in CEM-SS cells (MTS); assay type: cell-based; details: positive controls

Row | Molecule | IL-2 spleen cells (% of control) [1] | inhibition of the tube formation of endothelial cells [2] | inhibition of the migration of human endothelial cells [3] | IL-5 spleen cells; TH2 response (% of control) [4] | TNF-a spleen cells; TH1 response (% of control) [5] | IL-4 spleen cells; TH2 response (% of control) [6] | inhibition of HCMV plaque formation as compared to the virus control [7] | IFNγ spleen cells; TH1 response (% of control) [8] | inhibition of HBV replication as compared to the virus control infection [9] | antiviral activity of positive control compound (HCMV assay) ([7]; positive control, HCMV AD169) | antiviral activity of positive control compounds (HIV-1 assay) [10]
1 | Ser-Phe-Leu-Leu-Arg-OH (SFLLR-OH) [Peptide 1] | 55.7 % of control | 12% | 29% | 55.9 % of control | 121.8 % of control | 0.0 % of control | did not inhibit | 129.1 % of control | 39.6% |  | 
2 | Ac-muramyl-Ala-D-Glu-NH2 [Peptide 2] | 0.0 % of control | 27% | did not inhibit | 71.3 % of control | 134.0 % of control | 94.5 % of control | did not inhibit | 146.7 % of control | 54.4% |  | 
3 | Nc1nc(O)c2ncn(COC(CO)CO)c2n1 [Ganciclovir, reference compound] |  |  |  |  |  |  |  |  |  | expected levels of antiviral activity | 
4 | Cc1cn([C@H]2C[C@H](N=[N+]=[N-])[C@@H](CO)O2)c(=O)[nH]c1=O [AZT] |  |  |  |  |  |  |  |  |  |  | expected levels of antiviral activity
5 | CC(C)(C)NC(=O)[C@@H]1CN(Cc2cccnc2)CCN1C[C@@H](O)C[C@@H](Cc1ccccc1)C(=O)N[C@H]1c2ccccc2C[C@H]1O [indinavir] |  |  |  |  |  |  |  |  |  |  | expected levels of antiviral activity

— US20100204155A1, “USE OF THE PEPTIDE SFLLR-OH AND MURAMYL DIPEPTIDE AS THERAPEUTIC AGENTS” (priority 2007, published 2010)
